Data: PubChem BioAssay (NCI)
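The compound was tested at five concentrations on cells cultured in 96-well plates, with a 48-hour exposure period. TGI denotes the concentration required for complete inhibition of growth.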

How the values were obtained:
Assay in all cases: inhibition of tumour cell growth, NCI panel, 48 h
MOLT-4 leukemia = system: MOLT-4 leukemia
SR leukemia = system: SR leukemia
EKVX NSCLC = system: EKVX NSCLC
M14 melanoma = system: M14 melanoma
SF-539 CNS = system: SF-539 CNS
BT-549 breast = system: BT-549 breast
NCI-H23 lung = system: NCI-H23 lung
K-562 leukemia = system: K-562 leukemia
UACC-257 melanoma = system: UACC-257 melanoma
MDA-MB-435 = system: MDA-MB-435

Compound	TGI (MOLT-4 leukemia)	TGI (SR leukemia)	TGI (EKVX NSCLC)	TGI (M14 melanoma)	TGI (SF-539 CNS)	TGI (BT-549 breast)	TGI (NCI-H23 lung)	TGI (K-562 leukemia)	TGI (UACC-257 melanoma)	TGI (MDA-MB-435)
BrC1(c2ccccc2)C[n+]2c(-c3ccccc3)cc(-c3ccccc3)cc2-c2ccccc21 (stereo not given)	6.38 µM	> 42.5 µM	18.8 µM	15.5 µM	11.4 µM	1.85 µM	34.5 µM	1.48 µM	2.55 µM	0.538 µM
CCNC(=S)N/N=C(/C)c1cccc(/C(C)=N\NC(=S)NCC)n1	14.7 µM	> 15.7 µM	> 52.7 µM	19.9 µM	23.7 µM	> 100 µM	73.7 µM	26.3 µM	31.6 µM	> 100 µM
COc1ccc(S(=O)(=O)NC(CCC(=O)NC(N)=O)C(=O)NC(N)=O)cc1 (stereo not given)	> 100 µM	> 100 µM	> 100 µM	> 100 µM	> 100 µM	> 100 µM	> 100 µM	> 100 µM	> 100 µM	> 100 µM
COC1=C(OC)C(=O)C(Cc2c(Cl)nc3sccn23)=C(C)C1=O	4.17 µM	18.5 µM	20.4 µM	24.3 µM	25 µM	27.5 µM	29.2 µM	34.1 µM	16.1 µM	21.8 µM
[N-]=[N+]=CC(=O)C1CCN(c2ccccc2)C1=O (stereo not given)	> 10 µM	> 10 µM	> 10 µM	> 10 µM	> 10 µM	> 10 µM	> 10 µM	> 10 µM	> 10 µM	> 10 µM
O=c1c2ccc(Cl)cc2oc2c(CSc3ccccc3)cccc12	> 100 µM	> 100 µM	> 100 µM	> 100 µM	> 60.7 µM	> 78.7 µM	> 87.6 µM	> 100 µM	> 100 µM	> 68.3 µM
CC(=O)Oc1cc2c(cc1OCC(F)(F)F)[C@H]1CC[C@]3(C)[C@@H](OC(C)=O)CC[C@H]3[C@@H]1CC2=O	38.8 µM	> 77.9 µM	> 72.1 µM	> 78.6 µM	46.1 µM	> 77.7 µM	> 68.8 µM	> 100 µM	72.8 µM	> 72.1 µM
Cn1c(CO)ccc1-c1ccc(-c2ccc(CO)[se]2)[se]1	> 51.2 µM	> 100 µM	> 100 µM	> 73.8 µM	> 100 µM	> 91.4 µM	> 74.8 µM	98.5 µM	> 100 µM	45.6 µM
COc1ccc2oc(=O)c(-c3cc4c(c(C)n3)c(=O)oc3ccc(OC)cc34)cc2c1	> 100 µM	> 100 µM	> 100 µM	> 100 µM	> 100 µM	> 100 µM	> 100 µM	> 100 µM	> 100 µM	> 100 µM
CC(C)OC(=O)C(NC(=O)C(CC(=O)OCc1ccccc1)NC(=O)OCc1ccccc1)NC(=O)C1C(C)(C)CCC1(C)C (stereo not given)	> 51 µM	7.5 µM	12.2 µM	> 57.1 µM	13.1 µM	34.3 µM	23.9 µM	15.9 µM	> 60.8 µM	> 53.3 µM
COc1cc(C=O)cc(C=Nc2ccc(Br)cc2)c1O	62.4 µM	40.8 µM	> 100 µM	14.2 µM	7 µM	> 100 µM	> 100 µM	> 100 µM	34 µM	32.5 µM
CC1(C)CCC[C@@]2(C)C1CC[C@@]1(CO)O[C@H](C3=CC(=O)OC3O)C[C@H]12 (stereo not given in full)	11.5 µM	7.58 µM	60.3 µM	31.8 µM	> 59.8 µM	20.7 µM	26.6 µM	63.9 µM	35 µM	24.6 µM
COc1ccc(O[C@H](CO)C[C@@H]2COC(C)(C)O2)cc1	> 100 µM	> 100 µM	> 100 µM	> 100 µM	> 100 µM	> 100 µM	> 100 µM	> 100 µM	> 100 µM	> 100 µM
O=C(/C=C/c1ccccc1)c1cc(CN2CCOCC2)c(O)c(CN2CCOCC2)c1	75.6 µM	24.2 µM	98.5 µM	43.2 µM	32.6 µM	85.3 µM	60 µM	36.2 µM	31.1 µM	32.3 µM
O=c1c2[nH]cnc2n(-c2ccccc2)c(=S)n1-c1ccccc1	> 100 µM	> 100 µM	> 100 µM	> 100 µM	> 100 µM	> 100 µM	> 100 µM	> 100 µM	> 100 µM	> 100 µM
C[n+]1c2ccccc2n2c3ccccc3c(NCCCn3ccnc3)c(C#N)c21	> 35.7 µM	> 100 µM	24.1 µM	5.23 µM	24.5 µM	> 100 µM	9.13 µM	> 26 µM	35.5 µM	9.4 µM
Cc1n[nH]c(=O)n1-n1cccc1	> 100 µM	> 100 µM	> 100 µM	> 100 µM	> 100 µM	> 100 µM	> 100 µM	> 100 µM	> 100 µM	> 100 µM
